From patent US10239851B2 (priority 2014, dated 2019)
Like-named read-outs stand apart in the source and are kept apart here.

Legend:
[1] = tested on: human prostate cancer PC-3; details: PC-3 xenograft, nude mice, 33.6 mg/kg, D0 IV, single dose; for Tumor volume (mm^3) (D0): D0 (baseline at grouping); for Tumor inhibitory percent (%) D20: P(D20)=0.000 vs control
Source text: Test of the inhibitory activity of the water soluble docetaxel derivatives on subcutaneously xenografted tumor of human prostate cancer PC-3 in nude mice: evaluating and comparing the inhibitory activity of the water soluble docetaxel derivatives and docetaxel on subcutaneously xenografted tumor of human prostate cancer PC-3 in nude mice.
Human prostate cancer PC-3 cells were subcutaneously inoculated into nude mice. After the tumor volume reached 100-150 mm^3, the animals were randomly divided into several groups, and administered with the water soluble docetaxel derivatives of the present invention and docetaxel, respectively once on the same day (D0). The tumor volume was measured 2-3 times per week, the animals were weighed and the data were recorded until day 20 (D20) after grouping.
(§1) The tumor volume (V) was calculated according to the equation: V=½×a×b^2, wherein a and b represent the length and the width, respectively.
(§2) T/C (%)=(T−T0)/(C−C0)×100, wherein T and C represent the tumor volume at the end of the experiment; and T0 and C0 represent the tumor volume at the beginning of the experiment.

[2] = In vitro dissociation of the water soluble taxane derivatives in blood plasma of rat; format: in vitro ADME, SD rats; details: 37° C.
Method: The obtained water soluble taxane derivatives were formulated as 0.2 mg/ml aqueous solutions. […] After 2 min, 5 min and 10 min of incubation, 0.2 ml of solutions were respectively taken from each of the samples, and added to acetonitrile (0.4 ml) cooled to −20° C. for precipitation of protein.

[3] = In vitro dissociation of the water soluble taxane derivatives in blood plasma of rabbit; format: in vitro ADME, New Zealand white rabbits; details: 37° C.
Method: The obtained water soluble taxane derivatives were formulated as 0.2 mg/ml aqueous solutions. […] After 5 min, 20 min and 60 min of incubation, 0.2 ml of solutions were respectively taken from each of the samples, and added to acetonitrile (0.4 ml) cooled to −20° C. for precipitation of protein.

[4] = tested on: human prostate cancer PC-3; details: for Tumor volume (mm^3) (D0): D0 (baseline at grouping)
Source text: Test of the inhibitory activity of the water soluble cabazitaxel derivatives on subcutaneously xenografted tumor of human prostate cancer PC-3 in nude mice: evaluating and comparing the inhibitory activity of the water soluble cabazitaxel derivatives and cabazitaxel on subcutaneously xenografted tumor of human prostate cancer PC-3 in nude mice.
Human prostate cancer PC-3 cells were subcutaneously inoculated into nude mice. After the tumor volume reached 100-150 mm^3, the animals were randomly divided into several groups, and administered with the water soluble cabazitaxel derivatives of the present invention and cabazitaxel, respectively once on the same day (D0). The tumor volume was measured 2-3 times per week, the animals were weighed and the data were recorded until day 20 (D20) after grouping.
as §1, §2

[5] = PC-3 xenograft, nude mice, 13 mg/kg, D0 IV, single dose
[6] = PC-3 xenograft, nude mice, 13 mg/kg, D0 IV, single dose, D6
[7] = PC-3 xenograft, nude mice, 7 mg/kg, D0 IV, single dose

For `CC(=O)O[C@@]12CO[C@@H]1C[C@H](O)[C@@]1(C)C(=O)[C@H](O)C3=C(C)[C@@H](OC(=O)[C@H](OC(=O)[C@@H](F)CCCCN(C)C)[C@@H](NC(=O)OC(C)(C)C)c4ccccc4)C[C@@](O)([C@@H](OC(=O)c4ccccc4)[C@H]21)C3(C)C.O=S(=O)(O)O` [Compound 29, 2′-O-[6-(N,N-dimethyl)amino-2(S)-fluorohexanoyl]docetaxel sulfate], the “Tumor volume (mm^3) (D0)” value [1] was 114.7 ± 3.5 mm^3, the “Weight change (%) D6” value [1] was −15.8% and the “T/C (%) D20” value [1] was −20%. For the same compound, the “Tumor volume (mm^3) (D20)” value [1] was 52.4 ± 12.5 mm^3 and the “Tumor inhibitory percent (%) D20” value [1] was 45%.

For `CO[C@H]1C(=O)[C@]2(C)[C@@H](OC)C[C@H]3OC[C@@]3(OC(C)=O)[C@H]2[C@H](OC(=O)c2ccccc2)[C@]2(O)C[C@H](OC(=O)[C@H](OC(=O)[C@H](F)CCN(C)C)[C@@H](NC(=O)OC(C)(C)C)c3ccccc3)C(C)=C1C2(C)C.CS(=O)(=O)O` [Compound C7, 2′-O-[4-(N,N-dimethyl)amino-2(R)-fluorobutyryl]cabazitaxel methanesulfonate], the dissociation percent ([2]; 2 min) was 49.7%, the dissociation percent ([2]; 5 min) was 88.9% and the dissociation percent ([2]; 10 min) was 100%. The dissociation percent ([3]; 5 min) was 78.4%, the dissociation percent ([3]; 20 min) was 94.8% and the dissociation percent ([3]; 60 min) was 100%. For the same compound, the “T/C (%) D20” value [4, 5] was −67%.

`CO[C@H]1C(=O)[C@]2(C)[C@@H](OC)C[C@H]3OC[C@@]3(OC(C)=O)[C@H]2[C@H](OC(=O)c2ccccc2)[C@]2(O)C[C@H](OC(=O)[C@H](OC(=O)C(F)CCN(C)C)[C@@H](NC(=O)OC(C)(C)C)c3ccccc3)C(C)=C1C2(C)C.CS(=O)(=O)O` (stereo partly drawn) [Compound C9, 2′-O-[4-(N,N-dimethyl)amino-2(R,S)-fluorobutyryl] cabazitaxel methanesulfonate] gave a dissociation percent ([2]; 2 min) of 49.3%, a dissociation percent ([2]; 5 min) of 88.6% and a dissociation percent ([2]; 10 min) of 100%. For the same compound, the dissociation percent ([3]; 5 min) was 81.2%, the dissociation percent ([3]; 20 min) was 96.7% and the dissociation percent ([3]; 60 min) was 100%. The “T/C (%) D20” value [4, 5] was −66%.

With `CC(=O)O[C@@]12CO[C@@H]1C[C@H](O)[C@@]1(C)C(=O)[C@H](O)C3=C(C)[C@@H](OC(=O)[C@H](OC(=O)C(F)CCCN(C)C)[C@@H](NC(=O)OC(C)(C)C)c4ccccc4)C[C@@](O)([C@@H](OC(=O)c4ccccc4)[C@H]21)C3(C)C.CS(=O)(=O)O` (stereo partly drawn) [Compound 28, 2′-O-[5-(N,N-dimethyl)amino-2(R,S)-fluorovaleryl]docetaxel methanesulfonate] the “Tumor volume (mm^3) (D0)” value [1] was 118.2 ± 4.8 mm^3, the “Weight change (%) D6” value [1] was −15.4% and the “T/C (%) D20” value [1] was −28%. For the same compound, the “Tumor volume (mm^3) (D20)” value [1] was 41.5 ± 14.7 mm^3 and the “Tumor inhibitory percent (%) D20” value [1] was 64%.

For `CC(=O)O[C@@]12CO[C@@H]1C[C@H](O)[C@@]1(C)C(=O)[C@H](O)C3=C(C)[C@@H](OC(=O)[C@H](OC(=O)C(CCN(C)C)C(F)F)[C@@H](NC(=O)OC(C)(C)C)c4ccccc4)C[C@@](O)([C@@H](OC(=O)c4ccccc4)[C@H]21)C3(C)C.Cl` (stereo partly drawn) [Compound 27, 2′-O-[4-(N,N-dimethyl)amino-2(R,S)-2-difluoromethylbutyryl]docetaxel hydrochloride], the “T/C (%) D20” value [1] was −37% and the “Tumor inhibitory percent (%) D20” value [1] was 85%.

In the case of `CO[C@H]1C(=O)[C@]2(C)[C@@H](OC)C[C@H]3OC[C@@]3(OC(C)=O)[C@H]2[C@H](OC(=O)c2ccccc2)[C@]2(O)C[C@H](OC(=O)[C@H](OC(=O)[C@@H](CCN(C)C)C(F)F)[C@@H](NC(=O)OC(C)(C)C)c3ccccc3)C(C)=C1C2(C)C.Cc1ccc(S(=O)(=O)O)cc1` [Compound 34, 2′-O-[4-(N,N-dimethyl)amino-2(R)-2-difluoromethylbutyryl] cabazitaxel p-toluene sulfonate], the “Tumor volume (mm^3) (D0)” value [4, 5] is reported as 116.7 ± 3.9 mm^3, the “Weight change (%) D6” value [4, 6] is reported as −16.1% and the “T/C (%) D20” value [4, 5] is reported as −37%. For the same compound, the “Tumor inhibitory percent (%) D20” value [4, 5] was 85% and the “Tumor volume (mm^3) (D20)” value [4, 5] was 48.4 ± 14.7 mm^3.

With `CO[C@H]1C(=O)[C@]2(C)[C@@H](OC)C[C@H]3OC[C@@]3(OC(C)=O)[C@H]2[C@H](OC(=O)c2ccccc2)[C@]2(O)C[C@H](OC(=O)[C@H](OC(=O)[C@H](F)CCCCN(C)C)[C@@H](NC(=O)OC(C)(C)C)c3ccccc3)C(C)=C1C2(C)C.O=S(=O)(O)O` [Compound 36, 2′-O-[6-(N,N-dimethyl)amino-2(R)-fluorohexanoyl]cabazitaxel sulfate] the “Tumor volume (mm^3) (D0)” value [4, 5] was 111.9 ± 3.7 mm^3, the “Weight change (%) D6” value [4, 6] was −16.8% and the “T/C (%) D20” value [4, 5] was −20%. For the same compound, the “Tumor inhibitory percent (%) D20” value [4, 5] was 46% and the “Tumor volume (mm^3) (D20)” value [4, 5] was 66.8 ± 12.4 mm^3.

In the case of `CC(=O)O[C@@]12CO[C@@H]1C[C@H](O)[C@@]1(C)C(=O)[C@H](O)C3=C(C)[C@@H](OC(=O)[C@H](OC(=O)[C@@H](CCN(C)C)C(F)(F)F)[C@@H](NC(=O)OC(C)(C)C)c4ccccc4)C[C@@](O)([C@@H](OC(=O)c4ccccc4)[C@H]21)C3(C)C.CS(=O)(=O)O` [Compound 26, 2′-O-[4-(N,N-dimethyl)amino-2(R)-2-trifluoromethylbutyryl] docetaxel methanesulfonate], the “T/C (%) D20” value [1] is reported as −46%.

In the case of `CO[C@H]1C(=O)[C@]2(C)[C@@H](OC)C[C@H]3OC[C@@]3(OC(C)=O)[C@H]2[C@H](OC(=O)c2ccccc2)[C@]2(O)C[C@H](OC(=O)[C@H](OC(=O)[C@H](F)CCN(C)C(C)C)[C@@H](NC(=O)OC(C)(C)C)c3ccccc3)C(C)=C1C2(C)C.Cl` [Compound 32, 2′-O-[4-(N-methyl-N-isopropyl)amino-2(R)-fluorobutyryl]cabazitaxel hydrochloride], the “T/C (%) D20” value [4, 5] is reported as −45%.

With `CCN(C)CC[C@@H](F)C(=O)O[C@@H](C(=O)O[C@H]1C[C@@]2(O)[C@@H](OC(=O)c3ccccc3)[C@@H]3[C@]4(OC(C)=O)CO[C@@H]4C[C@H](OC)[C@@]3(C)C(=O)[C@H](OC)C(=C1C)C2(C)C)[C@@H](NC(=O)OC(C)(C)C)c1ccccc1.O=C(O)/C=C\C(=O)O` [Compound 30, 2′-O-[4-(N-methyl-N-ethyl)amino-2(R)-fluorobutyryl]cabazitaxel maleate] the “T/C (%) D20” value [4, 5] was −56%.

In the case of `CO[C@H]1C(=O)[C@]2(C)[C@@H](OC)C[C@H]3OC[C@@]3(OC(C)=O)[C@H]2[C@H](OC(=O)c2ccccc2)[C@]2(O)C[C@H](OC(=O)[C@H](OC(=O)[C@@H](CCN(C)C)C(F)(F)F)[C@@H](NC(=O)OC(C)(C)C)c3ccccc3)C(C)=C1C2(C)C.CS(=O)(=O)O` [Compound 33, 2′-O-[4-(N,N-dimethyl)amino-2(R)-2-trifluoromethylbutyryl]cabazitaxel methanesulfonate], the “T/C (%) D20” value [4, 5] is reported as −46%.

For `CCN(C)CCC(F)C(=O)OC(C(=O)OC1CC2(O)C(OC(=O)c3ccccc3)C3C4(OC(C)=O)COC4CC(O)C3(C)C(=O)C(O)C(=C1C)C2(C)C)C(NC(=O)OC(C)(C)C)c1ccccc1.CS(=O)(=O)O` [Compound 23, 2′-O-[4-(N-methyl-N-ethyl)amino-2(R)-fluorobutyryl]docetaxel methanesulfonate], the “T/C (%) D20” value [1] was −62%.

In the case of `CCN(CC)CCC(F)C(=O)OC(C(=O)OC1CC2(O)C(OC(=O)c3ccccc3)C3C4(OC(C)=O)COC4CC(O)C3(C)C(=O)C(O)C(=C1C)C2(C)C)C(NC(=O)OC(C)(C)C)c1ccccc1.O=C(O)C=CC(=O)O` [Compound 24, 2′-O-[4-(N,N-diethyl)amino-2(S)-fluorobutyryl]docetaxel maleate], the “T/C (%) D20” value [1] is reported as −52% and the “Tumor inhibitory percent (%) D20” value [1] is reported as 120%.

In the case of `CC(=O)O[C@@]12CO[C@@H]1C[C@H](O)[C@@]1(C)C(=O)[C@H](O)C3=C(C)[C@@H](OC(=O)[C@H](OC(=O)[C@H](F)CCN(C)C(C)C)[C@@H](NC(=O)OC(C)(C)C)c4ccccc4)C[C@@](O)([C@@H](OC(=O)c4ccccc4)[C@H]21)C3(C)C.Cl` [Compound 25, 2′-O-[4-(N-methyl-N-isopropyl)amino-2(R)-fluorobutyryl]docetaxel hydrochloride], the “T/C (%) D20” value [1] is reported as −44%.

Compound `CO[C@H]1C(=O)[C@]2(C)[C@@H](OC)C[C@H]3OC[C@@]3(OC(C)=O)[C@H]2[C@H](OC(=O)c2ccccc2)[C@]2(O)C[C@H](OC(=O)[C@H](OC(=O)[C@@H](F)CCN(C)C)[C@@H](NC(=O)OC(C)(C)C)c3ccccc3)C(C)=C1C2(C)C.CS(=O)(=O)O` [Compound C8, 2′-O-[4-(N,N-dimethyl)amino-2(S)-fluorobutyryl]cabazitaxel methanesulfonate] has a dissociation percent ([2]; 2 min) of 49.4%, a dissociation percent ([2]; 5 min) of 88.4% and a dissociation percent ([2]; 10 min) of 100%. The dissociation percent ([3]; 5 min) was 85.6%, the dissociation percent ([3]; 20 min) was 94.5% and the dissociation percent ([3]; 60 min) was 100%. The “T/C (%) D20” value [4, 5] was −66%.

For `CO[C@H]1C(=O)[C@]2(C)[C@@H](OC)C[C@H]3OC[C@@]3(OC(C)=O)[C@H]2[C@H](OC(=O)c2ccccc2)[C@]2(O)C[C@H](OC(=O)[C@H](O)[C@@H](NC(=O)OC(C)(C)C)c3ccccc3)C(C)=C1C2(C)C` [cabazitaxel, reference compound], the “Tumor volume (mm^3) (D0)” value [4, 7] was 111.7 ± 1.8 mm^3, the “T/C (%) D20” value [4, 7] was −27% and the “Tumor inhibitory percent (%) D20” value [4, 7] was 127%. For the same compound, the “Tumor volume (mm^3) (D20)” value [4, 7] was 79.9 ± 24.8 mm^3 and the “Weight change (%) D6” value ([4]; mouse, in vivo, iv, 7 mg/kg) was −13.8%.
